Laboratory results published in patent publication EP0230922A2, “Use of peptides in the preparation of agents for the treatment of coronary diseases or organic brain syndrome” (BOEHRINGER INGELHEIM KG, priority 1986, dated 1987).
Where “and” joins values, the source holds several entries; their conditions need not be identical. Equal entries are not always repeated.

Assays:
Mäuse (ChbI:NMRI) = assay: Scopolamine test: passive avoidance in mice; assay type: in vivo; conditions: per os, scopolamine hydrobromide 0,6 mg/kg s.c., test 1 h after dosing
Description: Durch den cholinerg-muskarinen Antagonisten Scopolamin wird bei Mensch und Tier eine vorübergehende Störung des übergangs von Inhalten des Kurzzeitgedächtnisses in das Langzeitgedächtnis hervorgerufen. Die auch klinisch bei gesunden Probanden durch Scopolamin auslösbaren, mnestischen Störungen sind in ihrer Ausprägung den psychopathologischen Veränderungen bei Patienten mit organischem Hirnsyndrom ähnlich (Drachman & Leavitt, 1974).
Der Scopolamin-Test wird an Gruppen von jeweils 10 männlichen, nicht nüchternen, naiven Mäusen (ChbI:NMRI: Körpergewicht 35 g) mit Hilfe einer passiven Vermeidereaktion durchgeführt. Das Testgerät besteht aus einer Skinner Box (30 cm x 26 cm x 29 cm) mit einem elektrifizierbaren Gitterboden und einer Plastikplattform (5 cm x 5 cm) an einer Seitenwand. Die Tiere werden einzeln in die Skinner Box gesetzt. Nach einer Orientierungsperiode von 30 sec werden kurze, unterbrochene Stromstöße von ca. 0,8 mA so oft an den Gitterboden der Box gelegt, bis das Tier gelernt hat, daß das Aufsuchen und Verweilen auf der Plastikplattform vor dem Stromstoß Sicherheit gewährt. Tiere, welche dies innerhalb von 120 sec nicht lernen, werden nicht weiter verwendet. Die anderen Mäuse werden unmittelbar nach Erlernen der passiven Vermeidereaktion in drei Gruppen (10 Tiere pro Gruppe) eingeteilt. Eine Gruppe erhält Scopolaminhydrobromid (0,6 mg/kg s.c.) und oral Vehikel (0,5 % Tylose); die zweite Gruppe Scopolaminhydrobromid sowie die zu testende Substanz per os in 0,5 % Tylose und die dritte Gruppe lediglich 0,5 % Tylose p.o.. Eine Stunde nach Applikation wird jedes Tier einzeln auf die Plattform gesetzt, um das Erinnerungsvermögen an die erlernte Vermeidereaktion zu prüfen. Das Kriterium besteht in der Bestimmung, ob die Maus während mindestens 60 sec auf der Plattform verbleibt (Ja-Antwort) oder nicht (Nein-Antwort).
Etwa 75 % der Tiere, welche ausschließlich mit 0,5 % Tylose behandelt wurden, verbleiben bei der abschließenden Prüfung länger als 60 sec auf der Plattform: ein Ergebnis, welches als Ausdruck des guten Erinnerungsvermögens an die erlernte Erfahrung gedeutet werden kann. Nach Gabe von Scopolamin und Tylose verbleiben durchschnittlich etwa 25 % der Tiere auf der Plattform; dies zeigt die erhebliche Beeinträchtigung des Erinnerungsvermögens nach Gabe von Scopolamin.

Mäuse (ChbI: NMRI) = assay: Hypoxia tolerance: survival of mice in a closed chamber (96,5 % N2, 3,5 % O2); assay type: in vivo; conditions: given 24 h, 16 h and 30 min before test, 10 mice per group
Description: 1. HYPOXIE-TOLERANZ, d.h. bei der Prüfung der überlebensfähigkeit von Tieren in einer geschlossenen Kammer.
Eine aus Plexiglas hergestellte, durchsichtige, mit einem Deckel verschließbare Kammer (28 cm x 40 cm x 20 cm; Gesamtvolumen 22,4 1) ist in 2 Hälften geteilt, in die je 10 männliche oder weibliche Mäuse (ChbI: NMRI; 20-25 g Körpergewicht) gesetzt werden. Die Kammer wird mit einem Gasgemisch, bestehend aus 96,5 % N2 und 3,5 % 02 durchströmt; das Strömungsvolumen beträgt 12 1/min.
Eine der beiden Gruppen erhält Prüfsubstanzen, die andere das Vehikel (0,5 % Tylose), die 24 h, 16 h und 30 min vor dem Test oral appliziert werden. Etwa 6-7 min nach Beginn der Durchströmung der Kammer sterben die ersten Tiere. Das Experiment wird beendet, wenn in der Kontrollgruppe nur noch 2-3 Tiere Zeichen von Leben zeigen.
Ohne die Tiere zu berühren, wird 15 min gewartet und dann die Zahl der überlebenden Tiere in den beiden Hälften der Kammern endgültig festgestellt. Die statistische Signifikanz der Differenz der überlebenden Tiere in beiden Gruppen kann mit dem "Exakten Test von Fisher für 2 x 2 Feldertafeln" festgestellt werden.

C[C@H](NC(=O)[C@H](Cc1ccccc1)SCOC(=O)C(C)(C)C)C(=O)N1CCC[C@H]1C(=O)OCOC(=O)C(C)(C)C [Verbindung 1, N-[N-(3-Phenyl-2-S-pivaloyloxymethylmercapto-propanoyl)-S-alanyl]-S-prolin-pivaloyloxymethylester]
%der Tiere bei welcher die Scopol-amin-Wirkung anta-gonisiert wurde (Mäuse (ChbI:NMRI); Dosis 5 (unit not given)): 80% and 40% | %der Tiere bei welcher die Scopol-amin-Wirkung anta-gonisiert wurde (Mäuse (ChbI:NMRI); Dosis 10 (unit not given)): 40% and 30% | %der Tiere bei welcher die Scopol-amin-Wirkung anta-gonisiert wurde (Mäuse (ChbI:NMRI); Dosis 20 (unit not given)): 40% | %der Tiere bei welcher die Scopol-amin-Wirkung anta-gonisiert wurde (Mäuse (ChbI:NMRI); Dosis 30 (unit not given)): 40% | Behandelte Tiere Überlebende % (Mäuse (ChbI: NMRI); 10 mg/kg p.o.): 100% | Behandelte Tiere Überlebende % (Mäuse (ChbI: NMRI); 30 mg/kg p.o.): 80%

C[C@H](NC(=O)[C@H](Cc1ccccc1)SC(=O)c1ccccc1)C(=O)N1CCC[C@H]1C(=O)O [Verbindung 2, N-[N-(3-Phenyl-2-S-benzoylmercaptopropanoyl)-S-alanyl]-S-prolin]
%der Tiere bei welcher die Scopol-amin-Wirkung anta-gonisiert wurde (Mäuse (ChbI:NMRI); Dosis 1 (unit not given)): 30% | %der Tiere bei welcher die Scopol-amin-Wirkung anta-gonisiert wurde (Mäuse (ChbI:NMRI); Dosis 5 (unit not given)): 50% | %der Tiere bei welcher die Scopol-amin-Wirkung anta-gonisiert wurde (Mäuse (ChbI:NMRI); Dosis 10 (unit not given)): 50% and 30% | Behandelte Tiere Überlebende % (Mäuse (ChbI: NMRI); 30 mg/kg p.o.): 60%

CC(=O)S[C@@H](Cc1ccccc1)C(=O)N[C@@H](C)C(=O)N1CCC[C@H]1C(=O)OCOC(=O)C(C)(C)C [Verbindung 3, N-[N-(3-Phenyl-2-S-acetylmercaptopropanoyl)-S-alanyl]-S-prolin-pivaloyloxymethylester]
%der Tiere bei welcher die Scopol-amin-Wirkung anta-gonisiert wurde (Mäuse (ChbI:NMRI); Dosis 0,5 (unit not given)): 40% | %der Tiere bei welcher die Scopol-amin-Wirkung anta-gonisiert wurde (Mäuse (ChbI:NMRI); Dosis 1 (unit not given)): 60% | %der Tiere bei welcher die Scopol-amin-Wirkung anta-gonisiert wurde (Mäuse (ChbI:NMRI); Dosis 5 (unit not given)): 40% | %der Tiere bei welcher die Scopol-amin-Wirkung anta-gonisiert wurde (Mäuse (ChbI:NMRI); Dosis 10 (unit not given)): 40% and 80% | Behandelte Tiere Überlebende % (Mäuse (ChbI: NMRI); 10 mg/kg p.o.): 50% | Behandelte Tiere Überlebende % (Mäuse (ChbI: NMRI); 30 mg/kg p.o.): 30% | Behandelte Tiere Überlebende % (Mäuse (ChbI: NMRI); 50 mg/kg p.o.): 80% and 100%

C[C@H](NC(=O)[C@@H](S)Cc1ccccc1)C(=O)N1CCC[C@H]1C(=O)OCOC(=O)C(C)(C)C [Verbindung 4, N-[N-(3-Phenyl-2-S-mercaptopropanoyl)-S-alanyl]-S-prolin-pivaloyloxymethylester]
Behandelte Tiere Überlebende % (Mäuse (ChbI: NMRI); 10 mg/kg p.o.): 90% | Behandelte Tiere Überlebende % (Mäuse (ChbI: NMRI); 30 mg/kg p.o.): 30% | Behandelte Tiere Überlebende % (Mäuse (ChbI: NMRI); 50 mg/kg p.o.): 70% and 100%
